# Experimental data taken from the supplement of paper PMC10307832.
# Legend:
# Assay in all cases: relative viability (nuclei count vs DMSO), 5 days (fraction); higher = more cells survive
# Tanzisertib + OSI-027 = compound: O[C@H]1CC[C@H](Nc2ncc3nc(Nc4c(F)cc(F)cc4F)n([C@H]4CCOC4)c3n2)CC1 [Tanzisertib] + COc1cccc2cc(-c3nc([C@H]4CC[C@H](C(=O)O)CC4)n4ncnc(N)c34)[nH]c12 [OSI-027] (partner 0.5 µM)
# Procedure, shortened: (§1)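 Relative viability is defined as nuclei in treated wells over nuclei in vehicle wells. Duplicate plates were run and medians reported. Lung cancer cell lines in 1536-well plates were dosed by pin tool one day after seeding, with one drug or with a fixed anchor-drug dose plus five library-drug doses (not always all listed) in √10 steps, and nuclei were counted after 5 days.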
# Tanzisertib + Alpelisib = compound: O[C@H]1CC[C@H](Nc2ncc3nc(Nc4c(F)cc(F)cc4F)n([C@H]4CCOC4)c3n2)CC1 [Tanzisertib] + Cc1nc(NC(=O)N2CCC[C@H]2C(N)=O)sc1-c1ccnc(C(C)(C)C(F)(F)F)c1 [Alpelisib] (partner 2 µM)
# Procedure, shortened: as §1
# Tanzisertib + Crizotinib = compound: O[C@H]1CC[C@H](Nc2ncc3nc(Nc4c(F)cc(F)cc4F)n([C@H]4CCOC4)c3n2)CC1 [Tanzisertib] + C[C@@H](Oc1cc(-c2cnn(C3CCNCC3)c2)cnc1N)c1c(Cl)ccc(F)c1Cl [Crizotinib] (partner 1 µM)
# Procedure, shortened: as §1
# Tanzisertib + Foretinib = compound: O[C@H]1CC[C@H](Nc2ncc3nc(Nc4c(F)cc(F)cc4F)n([C@H]4CCOC4)c3n2)CC1 [Tanzisertib] + COc1cc2c(Oc3ccc(NC(=O)C4(C(=O)Nc5ccc(F)cc5)CC4)cc3F)ccnc2cc1OCCCN1CCOCC1 [Foretinib] (partner 0.25 µM)
# Procedure, shortened: as §1
Cell Line,relative viability (Tanzisertib + OSI-027; first compound 0.08 µM),relative viability (Tanzisertib + OSI-027; first compound 0.253 µM),relative viability (Tanzisertib + OSI-027; first compound 0.8 µM),relative viability (Tanzisertib + OSI-027; first compound 2.53 µM),relative viability (Tanzisertib + OSI-027; first compound 8 µM),relative viability (Tanzisertib + Alpelisib; first compound 0.08 µM),relative viability (Tanzisertib + Alpelisib; first compound 0.253 µM),relative viability (Tanzisertib + Alpelisib; first compound 0.8 µM),relative viability (Tanzisertib + Alpelisib; first compound 2.53 µM),relative viability (Tanzisertib + Alpelisib; first compound 8 µM),relative viability (Tanzisertib + Crizotinib; first compound 0.08 µM),relative viability (Tanzisertib + Crizotinib; first compound 0.253 µM),relative viability (Tanzisertib + Crizotinib; first compound 0.8 µM),relative viability (Tanzisertib + Crizotinib; first compound 2.53 µM),relative viability (Tanzisertib + Crizotinib; first compound 8 µM),relative viability (Tanzisertib + Foretinib; first compound 0.08 µM),relative viability (Tanzisertib + Foretinib; first compound 0.253 µM),relative viability (Tanzisertib + Foretinib; first compound 0.8 µM),relative viability (Tanzisertib + Foretinib; first compound 2.53 µM),relative viability (Tanzisertib + Foretinib; first compound 8 µM)
NCI-H522,0.802,0.831,0.748,0.696,0.626,,,,,,,,,,,,,,,
NCI-H1299,,,,,,1.07,1.05,1.08,1.01,1.14,0.983,0.972,0.968,0.984,1.05,1.08,1.1,1.09,1.15,1.23
NCI-H1395,0.697,0.714,0.622,0.692,0.518,1.11,1.14,1.04,1.04,0.983,,,,,,1.06,0.941,0.96,0.945,0.966
NCI-H1623,0.495,0.448,0.453,0.437,0.432,,,,,,,,,,,0.956,0.815,0.912,0.834,0.788
NCI-H1648,0.275,0.245,0.239,0.319,0.223,,,,,,,,,,,,,,,
NCI-H1650,0.644,0.876,0.735,0.539,0.52,,,,,,1,1.06,1.07,0.914,0.803,1.3,0.984,1.07,1.15,0.776
NCI-H1703,,,,,,0.409,0.251,0.328,0.309,0.303,0.538,0.573,0.69,1.08,0.723,0.406,0.371,0.359,0.262,0.261
NCI-H1792,0.752,0.716,0.728,0.676,0.446,0.677,0.647,0.737,0.665,0.671,1.03,1.05,1.04,0.879,0.87,,,,,
NCI-H1793,0.27,0.262,0.285,0.292,0.197,0.842,0.532,0.754,0.754,0.733,,,,,,0.659,0.74,0.734,0.569,0.547
NCI-H2342,0.663,0.718,0.571,0.537,0.583,,,,,,,,,,,1.21,0.977,1.03,0.982,1.08
SW 900,0.644,0.588,0.511,0.866,0.556,,,,,,,,,,,1.02,0.784,1.07,0.924,0.787
